Data as given in ChEMBL document CHEMBL5576089, “Discovery of Oxidized p-Terphenyls as Phosphodiesterase 4 Inhibitors from Marine-Derived Fungi” (J Nat Prod, 2024).
Active and inactive are the calls of the source. No cut-off for these calls is given here.

Experiments:
[1] = biological target: Phosphodiesterase 4 (Homo sapiens, UniProt P27815+Q08499+Q07343+Q08493); test: Inhibition of PDE4 (unknown origin) using [3H]cAMP[…] as substrate incubated for 15 mins by phosphodiesterase scintillation proximity assay; type: protein assay
[2] = system: MRC5; test: Anti-fibrotic activity in TGF-beta1-activated human MRC5 cells assessed as reduction in COL1 protein expression incubated for 48 hrs by Western blot analysis; type: functional, cell-based; settings: dose 5-20 µM
[3] = system: NIH3T3; test: Cytotoxicity against mouse NIH3T3 cells assessed as reduction in cell viability incubated for 48 hrs; type: toxicity, cell-based; settings: nih3t3, 48 h
[4] = system: MRC5; test: Anti-fibrotic activity in TGF-beta1-activated human MRC5 cells assessed as reduction in alpha-SMA mRNA level at 5 to 20 uM incubated for 48 hrs by RT-qPCR analysis; type: functional, cell-based; settings: dose 5-20 µM
[5] = system: MRC5; test: Anti-fibrotic activity in TGF-beta1-activated human MRC5 cells assessed as reduction in COL1 protein expression at 20 uM incubated for 48 hrs by DAPI staining based immunofluorescence microscopic analysis; type: functional, cell-based
[6] = system: MRC5; test: Anti-fibrotic activity in TGF-beta1-activated human MRC5 cells assessed as reduction in COL-1 mRNA level at 5 to 20 uM incubated for 48 hrs by RT-qPCR analysis; type: functional, cell-based; settings: dose 5-20 µM
[7] = system: RAW264.7; test: Antiinflammatory activity in LPS-induced mouse RAW264.7 cells assessed as reduction in IL-6 mRNA level at 10 to 20 uM preincubated with compound for 4 hrs followed by LPS stimulation and measured after 24 hrs by RT-qPCR analysis; type: functional, cell-based; settings: dose 10-20 µM, time 28.0 hrs
[8] = system: NIH3T3; test: Anti-fibrotic activity in TGF-beta1-induced mouse NIH3T3 cells assessed as reduction in fibronectin expression at 20 uM incubated for 48 hrs by Western blot analysis; type: functional, cell-based
[9] = system: RAW264.7; test: Antiinflammatory activity in LPS-induced mouse RAW264.7 cells assessed as reduction in TNF-alpha mRNA level at 10 to 20 uM preincubated with compound for 4 hrs followed by LPS stimulation and measured after 24 hrs by RT-qPCR analysis; type: functional, cell-based; settings: dose 10-20 µM, time 28.0 hrs
[10] = system: RAW264.7; test: Cytotoxicity against mouse RAW264.7 cells assessed as reduction in cell viability at 10 to 160 uM incubated for 48 hrs by CCK8 assay; type: toxicity, cell-based; settings: raw264.7, 48 h, dose 10-160 µM
[11] = system: MRC5; test: Anti-fibrotic activity in TGF-beta1-activated human MRC5 cells assessed as reduction in FN1 protein expression incubated for 48 hrs by Western blot analysis; type: functional, cell-based; settings: dose 5-20 µM
[12] = system: MRC5; test: Anti-fibrotic activity in TGF-beta1-activated human MRC5 cells assessed as reduction in alpha-SMA protein expression at 20 uM incubated for 48 hrs by DAPI staining based immunofluorescence microscopic analysis; type: functional, cell-based
[13] = system: MRC5; test: Anti-fibrotic activity in TGF-beta1-activated human MRC5 cells assessed as reduction in FN1 mRNA level at 5 to 20 uM incubated for 48 hrs by RT-qPCR analysis; type: functional, cell-based; settings: dose 5-20 µM
[14] = system: MRC5; test: Anti-fibrotic activity in TGF-beta1-activated human MRC5 cells assessed as reduction in alpha-SMA protein expression incubated for 48 hrs by Western blot analysis; type: functional, cell-based; settings: dose 5-20 µM
[15] = system: RAW264.7; test: Antiinflammatory activity in LPS-induced mouse RAW264.7 cells assessed as reduction in IL-1beta mRNA level at 10 to 20 uM preincubated with compound for 4 hrs followed by LPS stimulation and measured after 24 hrs by RT-qPCR analysis; type: functional, cell-based; settings: dose 10-20 µM, time 28.0 hrs
[16] = system: MRC5; test: Anti-fibrotic activity in TGF-beta1-activated human MRC5 cells assessed as reduction in FN1 mRNA level at 10 uM incubated for 48 hrs by RT-qPCR analysis; type: functional, cell-based
[17] = system: MRC5; test: Anti-fibrotic activity in TGF-beta1-activated human MRC5 cells assessed as reduction in COL1 mRNA level at 10 uM incubated for 48 hrs by RT-qPCR analysis; type: functional, cell-based
[18] = system: MRC5; test: Anti-fibrotic activity in TGF-beta1-activated human MRC5 cells assessed as reduction in alpha-SMA mRNA level at 10 uM incubated for 48 hrs by RT-qPCR analysis; type: functional, cell-based

COc1c(-c2ccc(O)cc2)cc(O)c(-c2ccccc2)c1O
IC50 [1]: 16000 nM

COc1ccc(-c2c(OC)cc(-c3ccc(O)c(CC=C(C)C)c3)c(OC)c2O)cc1OC
IC50 [1]: 1800 nM

COc1c(O)c(-c2ccccc2)c(O)c(OC)c1-c1ccccc1
IC50 [1]: 400 nM

COc1cc(-c2ccccc2)c(OC)c(O)c1-c1ccc(OCC=C(C)C)c(O)c1
IC50 [1]: 3500 nM

COc1c(O)c(-c2ccccc2)c(OC(C)=O)c(OC)c1-c1ccccc1
Activity [2]: Dose-Dependent Effect | IC50 [1]: 1200 nM | Activity [3]: Non-Toxic | Activity [4]: Active | Activity [5]: Active | Activity [6]: Active | Activity [7]: Active | Activity [8]: Active | Activity [9]: Active | Activity [10]: Non-Toxic | Activity [11]: Dose-Dependent Effect | Activity [12]: Active | Activity [13]: Active | Activity [14]: Dose-Dependent Effect | Activity [15]: Active

Cc1ccc(=O)n(-c2ccccc2)c1
Activity [16]: Active | Activity [17]: Active | Activity [18]: Active

COc1c(O)c(-c2ccccc2)c(O)c(OC)c1-c1ccc(O)cc1
IC50 [1]: 620 nM

COc1cc(-c2ccc(O)cc2)c(OC)c(O)c1-c1ccc(O)c(CC=C(C)C)c1 [PRENYLTERPHENYLLIN]
IC50 [1]: 4200 nM

COc1cc(-c2ccc(O)c(CC=C(C)C)c2)c(OC)c(O)c1-c1ccc(OCC=C(C)C)c(O)c1
IC50 [1]: 3000 nM
